Like-named read-outs stand apart in the source and are kept apart here.

The nature of series [1]: Cell cytotoxicity assay HEK-293T (CellTiter-Glo, 72 hours). It counts as cell-based. Particulars: human, HEK-293T cells, read-out: Cytotox K-293 EC50. An excerpt:
(§1) Cytotoxicity assays. Hepatocyte toxicity, general cytotoxicity or cytotoxicity of unknown mechanism is an undesirable feature for a potential drug, including inhaled drugs. It may be of benefit for an inhaled JAK1 or JAK1/JAK2 inhibitor to have low intrinsic cytotoxicity against various cell types. Typical cell types used to assess cytotoxicity include both primary cells such as human hepatocytes, and proliferating established cell lines such as Jurkat and HEK-293. […] Methods of measuring cytotoxicity are known in the art. In some embodiments, compounds described herein were tested as follows:
(§2) (a) Jurkat and HEK293T cells were maintained at a sub confluent density in T175 flasks. Cells were plated at 450 cells/45 μl medium in Greiner 384 well black/clear tissue culture treated plates. (Greiner Catalog #781091). After dispensing cells, plates were equilibrated at room temperature for 30 minutes. After 30 minutes at room temperature, cells were incubated overnight at 37° C. in a CO2 and humidity controlled incubator. The following day, cells were treated with compounds diluted in 100% DMSO (final DMSO concentration on cells=0.5%) with a 10 point dose-response curve with a top concentration of 50 μM. Cells and compounds were then incubated for 72 hours overnight at 37° C. in a CO2 and humidity controlled incubator. After 72 hours of incubation, viability was measured using CellTiterGlo® (Promega Catalog #G7572) to all wells. After incubation at room temperature for 20 minutes, plates were read on EnVision™ (Perkin Elmer Life Sciences) using luminescence mode;
(§3) A549 (ATCC® CCL-185™), Jurkat clone E6-1 (ATCC® TIB-152™) and HEK-293T (ATCC® CRL-1573™) cells maintained at a sub-confluent density in T175 flasks were used. Cells in exponential growth phase were plated (450 cells in 45 μL of medium) in Greiner 384-well black/clear tissue culture treated plates (Greiner Catalog No. 781091). After dispensing cells, plates were allowed to equilibrate at room temperature for 30 minutes, after which time the cell plates were placed overnight in a 37° C. CO2 and humidity-controlled incubator. The following day, cells were treated with test agent diluted in 100% DMSO (0.5% final DMSO concentration on cells) with a 10-point titration and a top concentration of 50 μM. Cells and compounds were then incubated for 72 hours in a 37° C. CO2 and humidity-controlled incubator, after which time cell viability was measured by adding CellTiter-Glo® (Promega G7572) reagent to all wells. Plates were incubated at room temperature for 20 minutes and then the well luminescence was read on an EnVision plate reader (Perkin Elmer Life Sciences).
For orientation: Cellular ATP, detected with luciferase, serves as a proxy for viable cell number.

Series [2] concerns JAK1: IL-13-stimulated STAT6 phosphorylation in BEAS-2B cells. Nature of the series: P-STAT6 BEAS-2B+IL-13 Cell Assay. Particulars: IL-13 stimulation, read-out: Cellular JAK1 PSTAT6 BEAS2B + IL13 IC50. It counts as cell-based, human. In a few lines:
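BEAS-2B cells in BEGM preincubated 1 h at 37 °C with 10-point, 1:2 compound dilutions, then stimulated 15 min with IL-13 (250 ng/mL stock). Lysate pSTAT6 (Tyr641) captured on total-STAT6 antibody and read by MSD electrochemiluminescence; IC50 from four-parameter logistic fit.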

A short description of series [3]: Cell cytotoxicity assay A549 (CellTiter-Glo, 72 hours). It is filed as cell-based. Particulars: human, A549 cells, read-out: Cytotox A549 EC50. As to the method:
as §3

Series [4] in a line: Cell cytotoxicity assay Jurkat (CellTiter-Glo, 72 hours). It is filed as cell-based. Conditions: human, Jurkat clone E6-1 cells, read-out: Cytotox Jurkat EC50.
Text: as §1, §2, §3

Series [5] deals with Recombinant human JAK2 kinase domain protein (Residues 812-1132) (Homo sapiens, UniProt O60674). Nature of the series: JAK2 biochemical assay (microfluidic mobility shift, peptide phosphorylation). Conditions: Enzyme JAK2 Ki (nM), 25 μM ATP, 0.2 nM total JAK2.
Recombinant human JAK2 kinase domain protein (Residues 812-1132), sequence (O60674 812-1132): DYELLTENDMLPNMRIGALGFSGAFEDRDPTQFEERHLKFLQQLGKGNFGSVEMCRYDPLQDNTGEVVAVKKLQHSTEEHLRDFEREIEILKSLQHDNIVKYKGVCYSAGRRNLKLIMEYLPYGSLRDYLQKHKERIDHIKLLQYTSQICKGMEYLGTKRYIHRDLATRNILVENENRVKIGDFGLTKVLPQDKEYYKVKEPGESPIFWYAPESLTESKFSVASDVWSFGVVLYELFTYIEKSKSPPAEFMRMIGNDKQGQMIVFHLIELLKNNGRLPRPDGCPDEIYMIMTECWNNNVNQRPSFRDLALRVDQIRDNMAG
Procedure: JAK1 and JAK2 Biochemical Assays
The in vitro biochemical assays quantify JAK-catalyzed phosphorylation of a synthetic peptide, as detected using a LabChip® EZ Reader II microfluidic mobility shift instrument (PerkinElmer; Waltham, Mass.). […] Y-1B is fluorescently labeled on the N-terminus with 5-FAM (5-carboxyfluorescein) and contains a single tyrosine residue (Y) that can be phosphorylated by JAK activity. The substrate peptide stock is prepared in DMSO at 5 mM.
In each titration experiment, test compound was tested in duplicate at each of the twelve concentrations. Blank reactions contained ATP, peptide, and DMSO, but no JAK or test compound, whereas uninhibited control reactions contained ATP, peptide, JAK, and DMSO, but no test compound.
Peptide plus ATP mixture (24 μL) was added to 1 μL of test compound in DMSO (or DMSO alone). The reactions were initiated by adding 25 μL of JAK enzyme to the inhibitor/peptide/ATP mixture before thoroughly mixing the resultant solution. Reactions were incubated at room temperature (22° C.-23° C.) in a final volume of 50 μL per well in 384-well plates.
In each reaction, the residual Y-1B substrate and the phospho-peptide product generated were separated using the EZ Reader II instrument. Electrophoretic separation of molecules of product from molecules of substrate was achieved using downstream and upstream voltages of −500 and −2600 V, respectively, at an operating pressure of −1.3 psi.
The extent (or percent) of conversion of substrate to product was calculated from the corresponding peak heights in the electropherogram using HTS Well Analyzer software, Version 5.2 (PerkinElmer), and the following equation (Equation 1): % conversion=[P÷(S+P)]×100 Equation 1 where S and P represent the peak heights of the substrate and product, respectively. After any baseline signal from blank wells containing no JAK was subtracted from the signal of all test wells, the % conversion data were converted to fractional activity as shown in Equation 2, where vi and vo are the % conversion in the presence and absence of test compound, respectively.
Where [6] appears, read: Table 3, 72 hours, top concentration of 50 μM.
[7] abbreviates: Table 4, methyl-desmethyl analog pairs.

With `COCCS(=O)(=O)c1ccc(OC(F)F)c(-c2nn(C)cc2NC(=O)c2cnn3cccnc23)c1` [Example 14, N-[3-[2-(difluoromethoxy)-5-(2-methoxyethylsulfonyl)phenyl]-1-methyl-pyrazol-4-yl]pyrazolo[1,5-a]pyrimidine-3-carboxamide], the EC50 (in general, the midpoint of the concentration-response curve) at 72 h in series [1] (setting [6]) was 32 µM; in series [3] (setting [6]), no less than 50 µM; in series [4] (setting [6]), no less than 50 µM. The 50% inhibitory concentration (IC50) – broadly, the concentration needed to halve the response being measured – in series [2] (Homo sapiens, BEAS-2B) was determined as 0.023 µM.
As for `Cn1cc(NC(=O)c2cnn3cccnc23)c(-c2cc(S(C)(=O)=O)ccc2OC(F)F)n1` [Example 17, N-[3-[2-(difluoromethoxy)-5-methylsulfonyl-phenyl]-1-methyl-pyrazol-4-yl]pyrazolo[1,5-a]pyrimidine-3-carboxamide], the EC50 at 72 h turned out to be 7.3 µM in series [1] (setting [6]); 7.3 µM in series [1] (setting [7]); 8.7 µM in series [3] (setting [6]); 8.7 µM in series [3] (setting [7]); 11 µM in series [4] (setting [6]); 11 µM in series [4] (setting [7]). Besides, in series [5], the Ki (usually the equilibrium dissociation constant of an inhibitor or competing ligand from its target) came to 0.1 nM. Besides, in series [2] (Homo sapiens, BEAS-2B), the IC50 is 0.014 µM.
For the compound `CN1CCCC1CCn1cc(S(=O)(=O)c2ccc(OC(F)F)c(-c3nn(C)cc3NC(=O)c3cnn4cccnc34)c2)cn1` (stereo in doubt) [Example 56, N-[3-[2-(difluoromethoxy)-5-[1-[2-[(2R)-1-methylpyrrolidin-2-yl]ethyl]pyrazol-4-yl]sulfonyl-phenyl]-1-methyl-pyrazol-4-yl]pyrazolo[1,5-a]pyrimidine-3-carboxamide], the EC50 at 72 h in series [1] (setting [6]) is 10 µM; in series [3] (setting [6]), no less than 50 µM; in series [4] (setting [6]) it was 24 µM. Further, in series [5], the Ki was determined as 0.76 nM. Moreover, the IC50 in series [2] (Homo sapiens, BEAS-2B) worked out at 0.056 µM.
For `Cn1cc(NC(=O)c2cnn3cccnc23)c(-c2cc(S(=O)(=O)c3ccn(C)c(=O)c3)ccc2OC(F)F)n1` [Example 44, N-[3-[2-(difluoromethoxy)-5-[(1-methyl-2-oxo-4-pyridyl)sulfonyl]phenyl]-1-methyl-pyrazol-4-yl]pyrazolo[1,5-a]pyrimidine-3-carboxamide] the same measures were 7 µM, 24 µM, 11 µM, 0.34 nM and 0.029 µM.
In the case of `Cn1cc(NC(=O)c2cnn3cccnc23)c(-c2cc(S(=O)(=O)C3CCC3)ccc2OC(F)F)n1` [Example 2, N-[3-[5-cyclobutylsulfonyl-2-(difluoromethoxy)phenyl]-1-methyl-pyrazol-4-yl]pyrazolo[1,5-a]pyrimidine-3-carboxamide], the results for the EC50 at 72 h in series [1] (setting [6]), in series [3] (setting [6]) and in series [4] (setting [6]) were 27.5 µM, 25.5 µM and 38.5 µM, respectively. Moreover, in series [5], the Ki was determined as 0.2 nM. Besides, in series [2] (Homo sapiens, BEAS-2B), the IC50 came to 0.015 µM.
`CS(=O)(=O)c1ccc(OC(F)F)c(-c2nn(CC#N)cc2NC(=O)c2cnn3cccnc23)c1` [Example 28, N-[1-(cyanomethyl)-3-[2-(difluoromethoxy)-5-methylsulfonyl-phenyl]pyrazol-4-yl]pyrazolo[1,5-a]pyrimidine-3-carboxamide]: the EC50 at 72 h in series [1] (setting [6]) was 24 µM; in series [3] (setting [6]), no less than 50 µM; in series [4] (setting [6]), 39 µM. The Ki in series [5] came out at 0.14 nM. For the same compound, the IC50 in series [2] (Homo sapiens, BEAS-2B) is 0.0095 µM.
Consider `Cn1cc(NC(=O)c2cnn3cccnc23)c(-c2cc(S(=O)(=O)CCCO)ccc2OC(F)F)n1` [Example 63, N-[3-[2-(difluoromethoxy)-5-(3-hydroxypropylsulfonyl)phenyl]-1-methyl-pyrazol-4-yl]pyrazolo[1,5-a]pyrimidine-3-carboxamide], for which the EC50 at 72 h in series [1] (setting [6]) was 20 µM; in series [3] (setting [6]), no less than 50 µM; in series [4] (setting [6]), 35 µM. Besides, the Ki in series [5] stood at 0.28 nM. Further, the 50% inhibitory concentration (IC50) in series [2] (Homo sapiens, BEAS-2B) amounted to 0.071 µM.
As for `CC(CO)S(=O)(=O)c1ccc(OC(F)F)c(-c2nn(C)cc2NC(=O)c2cnn3cccnc23)c1` (single isomer, unassigned) [Example 24, N-[3-[2-(difluoromethoxy)-5-(2-hydroxy-1-methyl-ethyl)sulfonyl-phenyl]-1-methyl-pyrazol-4-yl]pyrazolo[1,5-a]pyrimidine-3-carboxamide], the Ki in series [5] was 0.19 nM. Besides, the IC50 in series [2] was 0.03 µM.

Values taken from US11453671B2, “Pyrazolopyrimidine inhibitors of JAK kinases and uses thereof” (Genentech, Inc., priority 2020, dated 2022).
